Measured values reported in patent publication US9125862B2, “Methods for the treatment of Prader-Willi-like syndrome or non-organic failure to thrive (NOFITT) feeding disorder using an agonist of the oxytocin receptor” (Institut National de la Sante et de la Rechereche Medicale …, priority 2010, dated 2015).

Assays:
[1] = test system: wild-type C57Bl6/J newborns; test: Injection of SSR126768A (antagonist of the oxytocin receptor) in wild type newborns: feeding and lethality; format: in vivo, mouse
Experimental: A first cohort of C57B16 wild type newborns were removed from their mothers 1-1h30 after their birth and very rapidly were given a single s.c. injection (20 μl) of vehicle control (0.2% ethanol in distilled water) or 3 μg (in 20 μl of 0.2% ethanol in distilled water) of SSR126768A (OTA). […] of C57B16 wild type newborns were injected 12-24 hours after birth. The dose of OTA used was based on previous publications (Serradeil-Le Gal, C., et al., 2004).
We chose to use the Oxytocin antagonist SSR126768A (a gift from C. Serradeil-Le Gal, Sanofi-Synthélabo Recherche, Toulouse, France) because it was already well characterized.
Taking in account all the previous data, we hypothesized that OT deficiency might be responsible for the Magel2 KO phenotype at birth. Consequently, we decided to inject the SSR 126768A compound, a specific OT antagonist (OTA) with high affinity with the OT receptor (Serradeil-Le Gal, C., et al., 2004). We proceeded to a single injection of 3 μg (20 μl) in 68 wild-type C57B16/J newborns (9 litters), 1 to 1.5 hour after birth. In parallel, in the same conditions, we injected the vehicle […] in 48 wild-type C57B16/J newborns (7 litters). Then, 12 (+/−3) hours after the injection time, we observed than 54% (37/68) of newborns injected with OTA had no milk in their stomach versus 4% (2/48) of newborns injected with vehicle. At P1 (24-36 h old), we observed than 48% (33/68) of newborns injected with OTA were dead versus 4% (2/48) of newborns injected with vehicle control. […] Thus, the SSR 126768A OTA at a dose of 3 μg appeared to have a specific effect, preventing the feeding process and leading to death, only when it was injected in a specific window of time after birth, before the suckling activity was initiated. This phenotype simulates the Magel2 KO feeding phenotype at birth.

OTR = conditions: cited from earlier work
rats = conditions: cited from earlier work
Magel2 KO neonates = test: Injection of oxytocin or vasopressin in Magel2 KO neonates: rescue of feeding and survival; format: in vivo, mouse; conditions: AVP injections, whatever the dose injected
Experimental: Three to 5 hours after delivery, wild type pups or pups issued from a cross between an heterozygote (+/−) male with wild type females were temporally removed (10 min) from their mother, weighted and given a single s.c. (in the ventral region at the level of floating ribs) injection (20 μl) of isotonic saline or 2 μg oxytocin (Phoenix Pharmaceuticals. Inc., Catalog No. 051-01) dissolved in isotonic saline (20 μl). […] Following the same protocol, we injected vasopressin (Phoenix Pharmaceuticals. Inc., Catalog No. 065-07) at different doses. At P2, pups were scarified to be genotyped.
The results obtained with the injection of SSR 126768A OTA let us think that we might restore a normal feeding behaviour in Magel2 KO newborns with an OT injection just after birth. Early neonatal manipulation of OT was reported in the literature without alterations of the postnatal development (Cushing, B. S., et Al., 2003; Yamamoto, Y., et al., 2004; Saito, O., et Al., 2007). Initially, 28 wild type newborns were injected with an isotonic saline (20 μl) and 4 of them died at P1. Another cohort of 28 wild type newborns, […] on hypothalamic nuclei one hour after the injection (Cushing, B. S., et Al., 2003; Yamamoto, Y., et al., 2004). We then decided to inject 2 μg of OT in Magel2 KO and wild type newborns, 3 to 5 hours after birth, the time when wild type newborns started to suckle but not the mutant neonates. […] The level of lethality is similar after an injection of saline solution (4/28 dead pups) or oxytocin (3/28 dead pups) and is in the range of lethality normally observed in wild type cohorts. In a second step, ten litters including a total of 37 wild type and 40 Magel2 KO neonates, were injected with an oxytocin solution. At P2, we observed that 95% (35/37) of wild type and 93% (37/40) of Magel2 mutant newborns survived with milk previously detected in their stomach at P1. In parallel, we controlled that the rescue of Magel2 KO neonates was specifically due to the oxytocin injection and not to the injection stress and/or handling of neonates. […]

Structure (SMILES): CCN(Cc1cccnc1)C(=O)c1ccc(Cl)c([C@]2(C)C(=O)N(Cc3ccc(OC)cc3OC)c3ccc(Cl)cc32)c1.Cl [SSR126768A, 4-chloro-3-[(3R)-(+)-5-chloro-1-(2,4-dimethoxybenzyl)-3-methyl-2-oxo-2,3-dihydro-1H-indol-3-yl]-N-ethyl-N-(3-pyridylmethyl)-benzamide, hydrochloride]
- survival 48 hours later ([1]; 3 μg in 20 μl injected 12-24 hours after birth, 42 wild-type pups): all of them survived
- newborns dead at P1 ([1]; single s.c. injection of 3 μg, 1 to 1.5 hour after birth, P1 (24-36 h old), vehicle 4% (2/48)): 48%
- newborns with no milk in their stomach ([1]; single s.c. injection of 3 μg, 1 to 1.5 hour after birth, observed 12 (+/−3) hours after injection, vehicle 4% (2/48)): 54%
- selectivity (OTR): high selectivity
- affinity for OTR (OTR; different species, including mouse): high affinity
- lethality or secondary effect (rats; 1, 3 or 10 μg/g in rats): without inducing lethality or any strong secondary effect
- duration of effect on uterus (rats; after administration of a dose as low as 3 μg/g): 24 h

Structure (SMILES): NC(=O)CC[C@@H]1NC(=O)[C@H](Cc2ccccc2)NC(=O)[C@H](Cc2ccc(O)cc2)NC(=O)[C@@H](N)CSSC[C@@H](C(=O)N2CCC[C@H]2C(=O)N[C@@H](CCCN=C(N)N)C(=O)NCC(N)=O)NC(=O)[C@H](CC(N)=O)NC1=O [AVP, Arginine-Vasopressin]
- rescue of the phenotype of Magel2 deficient neonates (Magel2 KO neonates): did not rescue the phenotype
